What was measured:
[1] = tested on: VEGFR2; assay: Immunoblot of phosphorylated VEGFR2 in HUVEC lysates; type: cell-based, human; conditions: for effect on VEGFR2 phosphorylation in confluent cells: confluent HUVEC, FIG. 10A; for effect on VEGFR2 phosphorylation in confluent cells / effect of TAT peptides on VEGFR2 phosphorylation: peptide 200 nM
Experimental: (§1) FIG. 4. α1 integrin activates TCPTP and attenuates VEGFR2 signalling. (A) Serum-starved subconfluent HUVEC were treated for 1 h with α1 integrin cytoplasmic tail fusion peptide (α1TAT) or TAT-scramble control fusion peptide (ScrTAT) (both at 200 nM) followed by VEGF-induction (100 ng/ml, 15 min) where indicated. Cell lysates were resolved on SDS-PAGE and immunoblotted for phosphorylated VEGFR2 (or tubulin as a control). (B) HUVEC were treated as in (A) and VEGFR2 kinase activity (mean±SD, n=3) was measured from the cell lysates. **, p<0.01. (C) Recombinant, purified TCPTP was incubated with α1 or α2 cytoplasmic tail peptides (L-amino acids) or with α1 and scrambled TAT peptides (D-amino acids) and analyzed for phosphatase activity (mean±SD, n=3).
FIG. 10. […] (A) Serum-starved HUVEC were plated to confluency on gelatin and treated for 1 h with α1 integrin cytoplasmic tail fusion peptide (α1TAT) or TAT-scramble control fusion peptide (ScrTAT) (both at 200 nM) or not treated, followed by VEGF-induction (15 min) when indicated. Cell lysates were immunoblotted for phosphorylated VEGFR2 (or tubulin as a control). (B) Confluent HUVEC on gelatin were treated with VEGF in the presence or absence of α1TAT or ScrTAT peptide and the number of live cells was detected using WST-1 reagent (mean±SD, n=3). (C) α1TAT treatment has no effect on internalization of VEGFR2 in confluent HUVEC. HUVEC were plated to confluency on gelatin, stimulated or not with the TAT peptides (200 nM) and VEGF, and treated with trypsin on ice. Cells were lysed after inactivation of trypsin and the lysates were immunoblotted for detection of VEGFR2 protected from trypsin (=internalized pool). The intensity of VEGFR2 bands was quantitated using densitometry (a representative experiment out of 3 with similar results is shown).

[2] = tested on: VEGFR2; assay: VEGFR2 internalization assay in HUVEC (microscopy, cold trypsin protection); type: cell-based, human; conditions: for effect on VEGFR2 internalization in confluent cells: confluent HUVEC, peptide 200 nM, FIG. 10C
Experimental: FIG. 3. TCPTP activity controls VEGF-dependent responses in endothelial cells. (A) HUVEC were transfected with the constitutively active TCPTP (TC37) or vector control (pCG), stimulated or not with VEGF, and stained for VEGFR2 (red) and nuclei (blue) after fixation and permeabilization. Arrows indicate VEGFR2 vesicles. (B) HUVEC were treated as in (A) and subjected to trypsin digestion on ice. VEGFR2 protected from trypsin (=internalized pool) was detected by immunoblotting. The intensities of VEGFR2 bands were quantified and are expressed relative to pCG-VEGF control. A representative experiment out of 2 with similar results is shown. (C) HUVEC were transfected with no oligo, siRNA against TCPTP or a control siRNA, and TCPTP expression was measured using immunoblotting. Cells were treated with 80 ng/ml VEGF and proliferation of sparse cells plated on gelatin was assayed after 16 h using BrdU-based assay (mean±SD; n=4-6; *, p<0.05). (D) HUVEC were transfected as in (A) and chemotaxis towards VEGF was measured using a Transwell assay for 4 hours. Cells adhering to the bottom of the filter were fixed and stained with crystal violet. Number of migrated cells was counted (mean±SEM, n=3).
FIG. 7. TCPTP activation through the cytoplasmic domain of α1 integrin inhibits internalization of VEGFR2. […] VEGFR2 staining in the perinuclear area of cells (mean±SEM, n=30) was analyzed from blinded samples using densitometry and scored from 0 to 4 (0=no staining, 4=highest expression). […] VEGFR2 protected from trypsin (=internalized pool) was detected by immunoblotting. The intensity of VEGFR2 bands was quantified using densitometry and expressed as arbitrary units. […]
FIG. 10. […] (B) Confluent HUVEC on gelatin were treated with VEGF in the presence or absence of α1TAT or ScrTAT peptide and the number of live cells was detected using WST-1 reagent (mean±SD, n=3). […] The intensity of VEGFR2 bands was quantitated using densitometry (a representative experiment out of 3 with similar results is shown).
VEGFR2 internalization assay. […] The amount of VEGFR2 in each sample was analyzed using immunoblotting.

[3] = target: T1, Recombinant, purified TCPTP (Homo sapiens, UniProt P17706); assay: In vitro phosphatase assay with purified TCPTP protein (diFMUP substrate); type: biochemical; conditions: TAT peptides of D-amino acids, FIG. 4C
T1 construct: made in house
T1 sequence (P17706 1-387 isoform P17706-2): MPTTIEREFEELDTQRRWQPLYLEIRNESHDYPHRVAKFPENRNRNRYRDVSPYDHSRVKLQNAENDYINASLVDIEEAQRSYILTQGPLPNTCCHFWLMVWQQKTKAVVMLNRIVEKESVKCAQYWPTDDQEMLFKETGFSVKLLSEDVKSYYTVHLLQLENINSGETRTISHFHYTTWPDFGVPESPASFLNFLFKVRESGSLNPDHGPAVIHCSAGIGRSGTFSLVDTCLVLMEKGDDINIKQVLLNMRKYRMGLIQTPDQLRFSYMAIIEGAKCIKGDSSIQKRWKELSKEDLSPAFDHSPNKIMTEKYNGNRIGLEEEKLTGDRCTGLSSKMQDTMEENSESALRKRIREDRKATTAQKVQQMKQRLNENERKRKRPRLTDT
Experimental: as §1
Phosphatase and kinase assays. Phosphatase assays were performed as described (8). Briefly, HUVEC were plated to collagen or gelatin coated plates and allowed to adhere for 1 h. TCPTP, SHP2 and control immunocomplexes were isolated from cell lysates, resuspended in the phosphatase assay buffer and assayed for phosphatase activity using 6,8-difluoro-4-methylumbelliferyl phosphate; Molecular Probes) as a substrate in the presence of a serine/threonine phosphatase inhibitor cocktail (Sigma). Thereafter, the antigens from the beads were used for immunoblotting. […]

Row | Sequence | effect on VEGFR2 phosphorylation in confluent cells [1] | effect of TAT peptides on VEGFR2 phosphorylation ([1]; subconfluent HUVEC, FIG. 4A) | effect on VEGFR2 internalization in confluent cells [2] | activation of TCPTP phosphatase activity [3] | VEGF-induced autophosphorylation of VEGFR2 at tyrosine 1214 ([1]; subconfluent HUVEC, peptide 200 nM 1 h, VEGF 100 ng/ml 15 min, FIG. 4A) | internalization of VEGFR2 in HUVEC ([2]; subconfluent HUVEC, peptide 200 nM 1 h, VEGF 100 ng/ml 15 min, FIG. 7)
1 | YGRKKRRQRRRLKGWRFKLKPKFKEMK (SEQ ID NO 8) [ScrTAT, reference compound] | no effects | induced a clear phosphorylation | no effects | no effect | – | –
2 | YGRKKRRQRRRWKLGFFKRPLKKKMEK (SEQ ID NO 3) [α1TAT] | no effects | effectively attenuated | no effects | very good activator | markedly inhibited | specifically inhibited

From US20100160228A1, “METHOD FOR INHIBITING OR STIMULATING ANGIOGENESIS IN AN INDIVIDUAL” (VALTION TEKNILLINEN TUTKIMUSKESKUS, priority 2007, published 2010)
